Test: Tissue distribution of tritium-labeled WP1122 and 2-DG in lungs after intravenous administration (liquid scintillation counting)
Format: in vivo
Conditions: male Sprague-Dawley rats; for Detection of 2-DG and metabolites in lungs: i.v., 15, 30, 60 min, 6 and 24 hours post-dose
Method: Experimental procedures. The pharmacokinetic and tissue organ distribution of WP1122 and 2-DG labeled with tritium was analyzed in male Sprague-Dawley rats. Animals (n=3 per timepoint) were dosed intravenously with 2-DG or WP1122 at equimolar dose 0.2 and 0.13 g/kg for WP1122 and 2-DG respectively. The animals were euthanized at 15, 30, 60 min and 6- and 24-hours post-dose. The organs were extracted, rinsed with PBS and radioactivity was measured using Liquid Scintillation Counting (LCS).

Row | Compound | Detection of 2-DG and metabolites in lungs | Presence of metabolites in lungs compared with 2-DG administration (i.v., all time points including 24 hours after administration) | Highest concentration of radiolabeled compounds in lungs relative to radioactivity from 2-DG administration (i.v., equimolar 0.2 g/kg WP1122 vs 0.13 g/kg 2-DG, 15 min post injection)
1 | CC(=O)OC[C@H]1OC(O)C[C@@H](OC(C)=O)[C@@H]1O (stereo partly drawn) [WP1122, ((2R,3S,4R)-4-acetoxy-3,6-dihydroxytetrahydro-2H-pyran-2-yl)methyl acetate] | detected in lungs in all tested time-points | Increased presence of metabolites | nearly three times higher
2 | OC[C@H]1OC(O)C[C@@H](O)[C@@H]1O (stereo partly drawn) [Example 2-DG, (4R,5S,6R)-6-(hydroxymethyl)tetrahydro-2H-pyran-2,4,5-triol, reference compound] | detected in lungs in all tested time-points | – | –
